PubChem BioAssay AID248 (DTP/NCI, 2004)
“And” between values parts separate entries of the source, which are not always exact repeats. Equal values may be shown once. Toxic doses and inconclusive results are not listed. Cut-off read from the data, not from the text of the source: active = T/C of 150% or more; inactive = T/C below 125%.

System: L1210 leukemia ip in BDF1 mice, survival T/C
Test: NCI In Vivo Anticancer Drug Screen. Data for tumor model L1210 Leukemia (intraperitoneal) in B6D2F1 (BDF1) mice
Conditions: endpoint: mean survival time, higher = longer survival
Method in brief: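 Tumor cells were implanted, animals were treated, and survival was followed. The result divides the treated measurement by the vehicle-control measurement.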

[1] = dose: 100.0 mg/kg/injection, schedule: Q01DX009 (ip), vehicle: Klucel (hydroxypropylcellulose) (HPC)
[2] = dose: 100.0 mg/kg/injection, schedule: Q04DX002 (ip), vehicle: saline
[3] = dose: 200.0 mg/kg/injection, schedule: Q01DX009 (ip), vehicle: Klucel (hydroxypropylcellulose) (HPC)
[4] = dose: 200.0 mg/kg/injection, schedule: Q04DX002 (ip), vehicle: saline
[5] = dose: 400.0 mg/kg/injection, schedule: Q04DX002 (ip), vehicle: saline
[6] = dose: 25.0 mg/kg/injection, schedule: Q04DX003 (ip), vehicle: saline
[7] = dose: 50.0 mg/kg/injection, schedule: Q04DX003 (ip), vehicle: saline
[8] = dose: 100.0 mg/kg/injection, schedule: Q04DX003 (ip), vehicle: saline
[9] = dose: 100.0 mg/kg/injection, schedule: Q04DX002 (ip), vehicle: Klucel (hydroxypropylcellulose) (HPC)
[10] = dose: 200.0 mg/kg/injection, schedule: Q04DX002 (ip), vehicle: Klucel (hydroxypropylcellulose) (HPC)
[11] = dose: 400.0 mg/kg/injection, schedule: Q04DX002 (ip), vehicle: Klucel (hydroxypropylcellulose) (HPC)
[12] = dose: 100.0 mg/kg/injection, schedule: Q04DX003 (ip), vehicle: Klucel (hydroxypropylcellulose) (HPC)
[13] = dose: 200.0 mg/kg/injection, schedule: Q04DX003 (ip), vehicle: Klucel (hydroxypropylcellulose) (HPC)
[14] = dose: 400.0 mg/kg/injection, schedule: Q01DX009 (ip), vehicle: Klucel (hydroxypropylcellulose) (HPC)
[15] = dose: 100.0 mg/kg/injection, schedule: Q01DX001 (ip), vehicle: saline
[16] = dose: 200.0 mg/kg/injection, schedule: Q01DX001 (ip), vehicle: saline
[17] = dose: 200.0 mg/kg/injection, schedule: Q04DX003 (ip), vehicle: saline
[18] = dose: 100.0 mg/kg/injection, schedule: Q01DX001 (ip), vehicle: Klucel (hydroxypropylcellulose) (HPC)
[19] = dose: 200.0 mg/kg/injection, schedule: Q01DX001 (ip), vehicle: Klucel (hydroxypropylcellulose) (HPC)
[20] = dose: 400.0 mg/kg/injection, schedule: Q01DX001 (ip), vehicle: Klucel (hydroxypropylcellulose) (HPC)
[21] = dose: 400.0 mg/kg/injection, schedule: Q04DX003 (ip), vehicle: saline
[22] = dose: 100.0 mg/kg/injection, schedule: Q01DX001 (ip), vehicle: other
[23] = dose: 200.0 mg/kg/injection, schedule: Q01DX001 (ip), vehicle: other
[24] = dose: 400.0 mg/kg/injection, schedule: Q01DX001 (ip), vehicle: other

Measured: T/C

CCCCCCCCCC(=O)N(CCCC)CCCC
inactive: dose: 50.0 mg/kg/injection, schedule: Q01DX009 (ip), vehicle: Klucel (hydroxypropylcellulose) (HPC) 102 % of control | [1] 105 % of control | [2] 95 % of control | [3] 109 % of control | [4] 101 % of control | [5] 88 % of control

c1ccc2c(c1)CCN(CCCCN1CCc3ccccc3C1)C2
inactive: [6] 100 % of control | [7] 102 % of control | [8] 96 % of control and 97 % of control

CCNC(=O)Oc1cccc(NC(=O)OC)c1
inactive: dose: 100.0 mg/kg/injection, schedule: Q04DX003 (ip), vehicle: saline with Tween-80 104 % of control | dose: 200.0 mg/kg/injection, schedule: Q04DX003 (ip), vehicle: saline with Tween-80 93 % of control | dose: 400.0 mg/kg/injection, schedule: Q04DX003 (ip), vehicle: saline with Tween-80 95 % of control

COc1cccc(-c2cc3c(OC)ccc(OC)c3[nH]2)c1
inactive: [9] 99 % of control | [10] 89 % of control | [11] 99 % of control

O=C(Nc1ccccc1Cl)Oc1ccccc1-c1ccccc1
inactive: [9] 106 % of control | [10] 113 % of control | [11] 120 % of control

Nc1cc([N+](=O)[O-])ccc1Nc1ccccc1
inactive: dose: 25.0 mg/kg/injection, schedule: Q01DX009 (ip), vehicle: DMSO 93 % of control | dose: 100.0 mg/kg/injection, schedule: Q04DX003 (ip), vehicle: DMSO 89 % of control

CC1=CC(C)(C(Cl)(Cl)Cl)C(C)=C/C1=N/O (stereo not given)
inactive: [1] 99 % of control | [3] 89 % of control

O=C1NC(=O)/C(=C\c2ccc(OCc3ccccc3)c(OCc3ccccc3)c2)N1
inactive: dose: 100.0 mg/kg/injection, schedule: Q01DX001 (ip), vehicle: saline with Tween-80 88 % of control | dose: 400.0 mg/kg/injection, schedule: Q01DX001 (ip), vehicle: saline with Tween-80 96 % of control

CCN(CC)C(=O)N1CCN(C)CC1
inactive: [1] 101 % of control | [12] 94 % of control | [3] 106 % of control | [13] 98 % of control | [14] 104 % of control | dose: 400.0 mg/kg/injection, schedule: Q04DX003 (ip), vehicle: Klucel (hydroxypropylcellulose) (HPC) 96 % of control

CCC1C(=O)OCc2c1ccn(C)c2=O (stereo not given)
inactive: dose: 25.0 mg/kg/injection, schedule: Q01DX001 (ip), vehicle: saline 114 % of control | [6] 95 % of control | dose: 50.0 mg/kg/injection, schedule: Q01DX001 (ip), vehicle: saline 104 % of control | [7] 95 % of control | [15] 103 % of control | [8] 101 % of control | [16] 106 % of control | [17] 101 % of control

O=C(O)C(c1ccccc1)c1ccccc1
inactive: [18] 97 % of control | [2] 97 % of control | [19] 101 % of control | [4] 97 % of control | [20] 109 % of control | [5] 87 % of control

CNc1ncnc(Cl)c1N
inactive: [18] 103 % of control | [19] 107 % of control

C[N+]1(C)N=C([O-])C=C1c1ccccc1
inactive: [8] 111 % of control | [17] 104 % of control | [21] 102 % of control

Cc1cc(Cl)ccc1NC(=O)Nc1ccccc1F
inactive: [1] 100 % of control | [3] 96 % of control | [14] 94 % of control

O=C(O)c1cc(C(Cl)(Cl)Cl)ccc1C(Cl)(Cl)Cl
inactive: dose: 50.0 mg/kg/injection, schedule: Q01DX009 (ip), vehicle: saline sonified 95 % of control | dose: 50.0 mg/kg/injection, schedule: Q04DX003 (ip), vehicle: Klucel (hydroxypropylcellulose) (HPC) 97 % of control | dose: 100.0 mg/kg/injection, schedule: Q01DX009 (ip), vehicle: saline sonified 101 % of control | [12] 96 % of control | dose: 200.0 mg/kg/injection, schedule: Q01DX009 (ip), vehicle: saline sonified 98 % of control | [13] 103 % of control

COc1ccc(C2=NNC(c3ccc(OC)cc3)=NN2)cc1
inactive: [22] 104 % of control | [23] 96 % of control | [24] 93 % of control

CCC1CN2CCc3cc(OC)c(OC)cc3C2CC1CC1c2cc(OC)c(OC)cc2CCN1C(=O)CNC(=O)OC(C)(C)C (stereo not given)
inactive: [15] 97 % of control | [16] 101 % of control | dose: 400.0 mg/kg/injection, schedule: Q01DX001 (ip), vehicle: saline 109 % of control

Cc1ccccc1N1CCN(c2ccccc2C)C1=C1N(c2ccccc2C)CCN1c1ccccc1C
inactive: dose: 100.0 mg/kg/injection, schedule: Q04DX002 (ip), vehicle: DMSO 103 % of control | dose: 200.0 mg/kg/injection, schedule: Q04DX002 (ip), vehicle: DMSO 98 % of control

COC(=O)C1=CN(C(=O)OC)CCC1
inactive: [18] 95 % of control | [19] 88 % of control | [20] 92 % of control

CCOC(=O)CC(C[N+](=O)[O-])C(F)(F)F (stereo not given)
inactive: [22] 103 % of control | [23] 97 % of control | [24] 103 % of control

c1ccn2nncc2c1
inactive: dose: 100.0 mg/kg/injection, schedule: Q01DX001 (ip), vehicle: carboxymethylcellulose (CMC) 103 % of control | dose: 200.0 mg/kg/injection, schedule: Q01DX001 (ip), vehicle: carboxymethylcellulose (CMC) 90 % of control

Cc1ccc(C(=O)CCc2ccccc2)cc1
inactive: dose: 100.0 mg/kg/injection, schedule: Q04DX003 (ip), vehicle: other 92 % of control | dose: 200.0 mg/kg/injection, schedule: Q04DX003 (ip), vehicle: other 91 % of control | dose: 400.0 mg/kg/injection, schedule: Q04DX003 (ip), vehicle: other 94 % of control

COc1cc(O)c(C(=O)O)c(OC)c1
inactive: dose: 100.0 mg/kg/injection, schedule: Q01DX009 (ip), vehicle: other 103 % of control | [8] 104 % of control | dose: 200.0 mg/kg/injection, schedule: Q01DX009 (ip), vehicle: other 103 % of control | [17] 102 % of control | dose: 400.0 mg/kg/injection, schedule: Q01DX009 (ip), vehicle: other 101 % of control | [21] 98 % of control

CCCCCCCCCCCCCCCCCCNC(=O)c1c(Br)c(Br)cc(Br)c1C(=O)O
inactive: dose: 25.0 mg/kg/injection, schedule: Q04DX002 (ip), vehicle: Klucel (hydroxypropylcellulose) (HPC) 104 % of control | dose: 50.0 mg/kg/injection, schedule: Q04DX002 (ip), vehicle: Klucel (hydroxypropylcellulose) (HPC) 93 % of control | [9] 96 % of control | [10] 98 % of control and 87 % of control | [11] 90 % of control

COc1ccc(N2C(=O)OC3(CCN(CCCC(=O)c4cccs4)CC3)C2=O)cc1
inactive: [18] 88 % of control | [19] 92 % of control | [20] 100 % of control

COc1ccc(NC(=S)Nc2ccc(-c3ccc(NC(=S)Nc4ccc(OC)cc4)cc3)cc2)cc1
inactive: [9] 87 % of control | [10] 87 % of control

CC(C)CC(CC(C)C)OB(OC(CC(C)C)CC(C)C)OC(CC(C)C)CC(C)C
inactive: dose: 50.0 mg/kg/injection, schedule: Q01DX001 (ip), vehicle: other 96 % of control | [22] 96 % of control | [23] 96 % of control | [24] 90 % of control

C=CCCCCCCCCC(=O)NC/C(Br)=C/Br
inactive: dose: 75.0 mg/kg/injection, schedule: Q01DX009 (ip), vehicle: Klucel (hydroxypropylcellulose) (HPC) 103 % of control | dose: 150.0 mg/kg/injection, schedule: Q01DX009 (ip), vehicle: Klucel (hydroxypropylcellulose) (HPC) 108 % of control | dose: 300.0 mg/kg/injection, schedule: Q01DX009 (ip), vehicle: Klucel (hydroxypropylcellulose) (HPC) 93 % of control
